Results as given in article PMC11942360, “Intratracheal Delivery of a Phospholamban Decoy Peptide Attenuates Cardiac Damage Following Myocardial Infarction” (International Journal of Molecular Sciences, 2025).

How the values were obtained:
[1] = cited from earlier work
From the text: In this study, we aimed to evaluate the feasibility of delivering a naked peptide fused with a cell-penetrating peptide (CPP) to the heart via the lung-to-heart route without encapsulation in NPs. CPPs, which are the peptide sequences enriched in arginine and lysine residues, facilitate the translocation of hydrophilic macromolecules such as proteins and peptides across cellular membranes. The specific CPP used in this study is a tandem repeat of NP2 (dNP2), a sequence derived from the human novel LZAP-binding protein (NLBP). Compared to TAT, the most widely used CPP originated fro ...

[2] = test system: C57/Bl6 mice, myocardial infarction; assay: Myocardial infarction (LAD ligation) model: histology and heart morphology; type: in vivo; conditions: 200 nmoles IT 3 h prior to MI, vs PBS-injected
Procedure: (§1) Figure 2 Delivery of dNP2-SE via IT injection exerts cardio-protective effects upon MI. (A) Experimental scheme. A total of 200 nmol dNP2-SE or PBS was delivered via IT injection to adult (9-week-old) C57/Bl6 mice. MI was induced by LAD ligation 3 h post-injection. Hearts were harvested and analyzed 24 h post-MI. (B) Hearts were sectioned and stained with hematoxylin and eosin (H&E) or Picro Sirius Red. Representative images are shown. The LV chamber area was traced (shown in blue lines) and quantitated. The thickness of the LV free wall was also measured (shown in straight black lines). (C,D) LV chamber area and LV free wall thickness are presented as a graph. n = 6~7 per group; one-way ANOVA; *** p < 0.001. Bar represents the mean ±SEM. […] Bar represents the mean ±SEM. (F) TUNEL staining of the heart sections was performed using the DeadEnd Fluorometric TUNEL System. Apoptotic DNA fragmentation was labeled with fluorescein-12-dUTP (green). Nuclei were stained with Hoechst 33342 (blue). Representative images are shown. […] Bar represents the mean ± SEM.
(§2) The left side of the chest was shaved, and an intubation tube was inserted into the trachea. An incision was made in the 4th intercostal space, and the muscles were separated with scissors. The pericardium was gently removed. MI was induced by ligation of the left anterior descending (LAD) artery using a 7–0 black silk suture. The lower region of the artery turned pale immediately after ligation. The chest was sutured with 4–0 black silk. The same surgical procedure, without LAD ligation, was performed for the sham operation.
Harvested heart tissues were fixed in 4% PFA for 24 h at 4 °C and then washed with tap water. After discarding the tap water, the tissues were sequentially incubated in 70%, 80%, 95%, and 100% ethanol for 1 h each to dehydrate. Following the ethanol incubations, the tissues were incubated in xylene for 1 h and 20 min and then embedded in paraffin at 60 °C for 4 h. Paraffin-embedded tissues were sliced into 8 µm sections. After rehydration, the sections were used for histology as follows:
H&E staining: The sections were incubated in hematoxylin (26041-06, Electron Microscopy Science, Hatfield, PA, USA) for 30 s to stain the nuclei, followed by a 10 min wash in running tap water to remove excess stain. Subsequently, the sections were incubated in eosin (EOYA-05-OT-1L, Biognost, Zagreb, Croatia) for 2 min to stain the cytoplasm.
Picro Sirius staining: The sections were incubated for 60 min in Picro Sirius Red solution (ab150681, Abcam, Waltham, MA, USA), rinsed twice with 0.5% acetic acid, and then rinsed with absolute alcohol. H&E and Picro Sirius-stained slides were observed using a slide scanner (Aperio CS2, Leica, Germany).

[3] = test system: C57/Bl6 mice, myocardial infarction; assay: Myocardial infarction model: TUNEL staining of heart sections; type: in vivo; conditions: 200 nmoles IT 3 h prior to MI; 24 h post-MI; LV free wall; n = 3~4 per group
Procedure: as §1, with “± SEM. […]” for “± SEM.”
The TUNEL assay was performed following the manufacturer’s instructions (DeadEnd Fluorometric TUNEL System, Promega, […], USA). […] Apoptotic signals and nuclear signals in the LV region were counted using cellSens TruAI 4.3 software (OLYMPUS, Tokyo, Japan), and the percentage of TUNEL-positive cells was calculated.

[4] = test system: C57/Bl6 mice, myocardial infarction; assay: Myocardial infarction model: hemodynamic analysis (PV loops); type: in vivo; conditions: 200 nmoles IT 3 h prior to MI, 24 h post-MI, n = 5~8 per group
Procedure: Figure 3 Delivery of dNP2-SE via IT injection preserves cardiac contractility upon MI. Hemodynamic analyses were performed 24 h post-MI to measure cardiac contractility. (A) Representative PV loops are shown. (B) End-systolic pressure–volume relationship (ESPVR), dp/dt max (mmHg), and dp/dt min (mmHg) are shown. […] Bar represents the mean ± SEM.
as §2
An incision was made in the abdominal wall to expose the abdominal cavity. The diaphragm was carefully separated from the ribs to avoid bleeding during the incision procedures. The xiphoid process was lifted, and the diaphragm was pulled down and fixed to secure the site. The pericardium was then removed. A small puncture was made in the left ventricle using an insulin syringe, and a probe was inserted through the puncture (AD instruments, Dunedin, New Zealand). Data analysis was performed using LabChart 8 (AD instruments, New Zealand).

[5] = test system: SERCA2a, α-SMA, phospho-PLN (S16), PP1cα, PPP1R3A in heart; assay: Myocardial infarction model: western blotting of heart lysates; type: in vivo, mice; conditions: 200 nmoles IT 3 h prior to MI, 24 h post-MI, western blot, n = 3 per group
From the text: Figure 4 Delivery of dNP2-SE via IT injection prevents molecular abnormalities upon MI. (A) Protein lysates obtained from the hearts shown in Figure 2 and Figure 3 were subjected to western blotting. Antibodies against SERCA2a, α-SMA, phospho-PLN, PLN, PP1cα, and PPP1R3A were used. β-actin was used as a loading control. (B) The ratio of phosphorylated PLN over PLN is shown. […] Bar represents the mean ± SEM.

[6] = biological target: T1, PP1cα-PPP1R3A-PLN complex (Mus musculus, UniProt P62137); assay: Immunoprecipitation of heart lysates with anti-PP1cα antibodies; conditions: heart lysates of MI mice given 200 nmoles IT, IP with anti-PP1cα
T1 construct: from tissue; host or cells: mouse heart (C57BL/6, after MI, PBS- or dNP2-SE-injected)
T1 sequence (P62137 whole entry, one chain of several): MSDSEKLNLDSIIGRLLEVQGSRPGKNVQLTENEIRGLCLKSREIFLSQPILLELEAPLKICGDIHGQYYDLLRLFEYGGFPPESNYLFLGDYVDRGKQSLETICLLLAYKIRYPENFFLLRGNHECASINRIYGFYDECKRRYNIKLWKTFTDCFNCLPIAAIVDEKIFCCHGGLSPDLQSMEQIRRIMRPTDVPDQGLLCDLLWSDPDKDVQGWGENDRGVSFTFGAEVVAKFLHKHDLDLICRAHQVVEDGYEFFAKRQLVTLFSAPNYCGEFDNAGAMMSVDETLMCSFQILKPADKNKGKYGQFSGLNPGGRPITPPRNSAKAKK
From the text: (§3) Figure 5 Inhibitory mechanism of dNP2-SE on the PP1cα-PPP1R3A-PLN complex. (A) Protein lysates shown in Figure 4 were subjected to immunoprecipitation with anti-PP1cα antibodies and blotted with antibodies against PLN, PPP1R3A, and PP1cα (upper three rows). Inputs were also blotted with antibodies against PLN, PPP1R3A, and PP1cα (lower three rows). (B) Biotin-dNP2-SE was delivered to the normal heart via IT injection. Heart lysates were obtained, precipitated with streptavidin, and blotted with PP1cα, PPP1R3A, and PLN. Inputs were also blotted.
Immunoprecipitation was performed by adding 1 µg of the corresponding antibody to 1 mg of lysate. The mixture was gently inverted on a rotator overnight at 4 °C. After the primary antibody incubation, 30 µL of protein A-conjugated magnetic beads (88845, Thermo Fisher, Waltham, MA, USA) were added and incubated for 1 h to bind with the antibody. To isolate the protein–antibody–bead complex from the lysate, the mixture was centrifuged at 3000 rpm for 3 min at 4 °C and washed 4 times with lysis buffer. As a control for the precipitates, 2% of the initial protein amount used for pulldown was prepared as input. The collected complexes and inputs were used for western blots.

[7] = biological target: T2, PP1cα (Mus musculus, UniProt P62137); assay: Streptavidin precipitation of biotin-dNP2-SE from heart lysates, blot for PP1cα; type: binding, mice; conditions: biotin-dNP2-SE delivered to the normal heart via IT injection
T2 construct: from tissue; host or cells: normal mouse heart after IT injection of biotin-dNP2-SE
T2 sequence (P62137 whole entry): as the sequence (P62137 whole entry, one chain of several) above
From the text: as §3

[8] = biological target: T3, PPP1R3A (Mus musculus, UniProt Q99MR9); assay: Streptavidin precipitation of biotin-dNP2-SE from heart lysates, blot for PPP1R3A; type: binding, mice; conditions: biotin-dNP2-SE delivered to the normal heart via IT injection
T3 construct: from tissue; host or cells: normal mouse heart after IT injection of biotin-dNP2-SE
T3 sequence (Q99MR9 1-1089): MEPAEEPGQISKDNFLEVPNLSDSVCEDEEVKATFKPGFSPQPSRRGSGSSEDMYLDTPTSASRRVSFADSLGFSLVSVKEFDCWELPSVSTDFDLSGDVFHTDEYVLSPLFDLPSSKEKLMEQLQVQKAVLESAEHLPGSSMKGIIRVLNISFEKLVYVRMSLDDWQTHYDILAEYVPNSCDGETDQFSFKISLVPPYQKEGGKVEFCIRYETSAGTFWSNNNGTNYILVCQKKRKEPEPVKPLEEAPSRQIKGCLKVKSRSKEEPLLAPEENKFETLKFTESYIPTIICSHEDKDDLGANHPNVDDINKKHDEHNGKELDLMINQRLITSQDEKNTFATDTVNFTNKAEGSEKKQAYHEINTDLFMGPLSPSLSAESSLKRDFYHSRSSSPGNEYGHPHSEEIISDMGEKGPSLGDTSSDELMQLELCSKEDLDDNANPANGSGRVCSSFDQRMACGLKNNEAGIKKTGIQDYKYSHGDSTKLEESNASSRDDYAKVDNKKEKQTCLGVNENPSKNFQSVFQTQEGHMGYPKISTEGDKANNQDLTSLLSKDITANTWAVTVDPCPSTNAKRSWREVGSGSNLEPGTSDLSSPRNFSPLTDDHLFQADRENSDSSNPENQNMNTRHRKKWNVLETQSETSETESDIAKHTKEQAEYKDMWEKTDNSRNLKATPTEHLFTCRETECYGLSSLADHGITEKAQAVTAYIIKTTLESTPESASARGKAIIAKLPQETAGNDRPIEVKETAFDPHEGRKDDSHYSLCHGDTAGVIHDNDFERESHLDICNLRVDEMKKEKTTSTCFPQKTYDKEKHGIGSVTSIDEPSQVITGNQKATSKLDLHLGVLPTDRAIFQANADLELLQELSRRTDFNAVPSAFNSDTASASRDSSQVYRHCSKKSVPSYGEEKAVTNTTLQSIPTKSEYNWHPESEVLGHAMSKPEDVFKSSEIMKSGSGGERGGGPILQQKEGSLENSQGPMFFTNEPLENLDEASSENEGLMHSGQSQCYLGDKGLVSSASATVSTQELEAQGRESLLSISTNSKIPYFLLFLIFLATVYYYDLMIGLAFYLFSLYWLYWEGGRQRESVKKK
From the text: as §3

[9] = 24 h post-MI, n = 6~7 per group

KIKKVKKKGRKGSKIKKVKKKGRKG [dNP2]
Toxicity compared to TAT [1]: significantly lower toxicity than TAT

Ac-KIKKVKKKGRKGSKIKKVKKKGRKGRAETIEMPQ-NH2 [dNP2-SE]
Heart weight-to-body weight ratio under MI [2, 9]: normalized | LV chamber area under MI [2, 9]: remained normal | LV free wall thickness under MI [2, 9]: significantly preserved | Collagen deposition (Picro Sirius staining) under MI ([2]; hearts 24 h post-MI): markedly reduced | Increase in apoptotic cell populations (TUNEL-positive cells) under MI [3]: effectively prevented | PV loop pattern under MI [4]: indistinguishable from that of sham-operated hearts | Ejection fraction (EF) under MI ([4]; vs PBS-injected): significantly ameliorated | End-systolic pressure–volume ratio (ESPVR) under MI ([4]; vs PBS-injected): significantly normalized | LV end-diastolic volume (Vmax) under MI ([4]; vs PBS-injected): significantly ameliorated | LV end-systolic volume (Vmin) under MI ([4]; vs PBS-injected): significantly ameliorated | dP/dt max under MI ([4]; vs PBS-injected): significantly normalized | dP/dt min under MI ([4]; vs PBS-injected): significantly normalized | Phosphorylation of PLN at S16 (p-PLN) in heart under MI ([5]; p-PLN/PLN): fully preserved | Expression level of PP1cα in heart [5]: remained unchanged | MI-induced increase in PPP1R3A expression in heart [5]: prevented | MI-induced increase of α-smooth muscle actin (α-SMA) in heart [5]: attenuated | MI-induced reduction of SERCA2a expression in heart [5]: attenuated | Interactions between PP1cα and PPP1R3A (co-immunoprecipitation) [6]: not altered | Physical interactions between PP1cα and PLN (co-immunoprecipitation) ([6]; vs PBS-injected): completely abolished | Binding to PP1cα (streptavidin precipitation, western blot) [7]: strongly binds | Interaction with PPP1R3A (streptavidin precipitation, western blot) [8]: only weakly interacts
